Reference: patent US7208495B2, “Benzo-fused 5-membered hetrocycle compounds, process for preparation of the same, and use thereof” (Takeda Pharmaceutical Company Limited, priority 2001, dated 2007)

Legend:
[1] = tested on: human neuroblastoma SK-N-SH cells; assay: Cytoprotection activity against PI-3 kinase inhibitor LY-294002 in human neuroblastoma SK-N-SH cells; type: cell-based; details: test compound 1.0 μM with LY-294002 30 μM, Alamarblue reduction one day after start, (A−B)/(C−B)×100
Procedure: Cytoprotection activity against a PI-3 kinase inhibitor LY-294002 in human neuroblastoma SK-N-SH cells.
Human neuroblastoma SK-N-SH cells were purchased from American Type Cell Culture (ATCC). DMEM/F-12 culture medium and potassium/magnesium-free phosphate buffer saline (PBS(−)) were purchased from Nikken Biomedical Co., Ltd., N2 additives and EDTA solution were purchased from GIBCO BRL Company, fetal bovine serum (FCS) and a mixed solution of penicillin (5000 U/ml) and streptomycin (5 mg/ml) were purchased from BioWhittaker Inc., Alamarblue™ reagent was purchased from Wako Pure Chemical Industries Ltd., culture flasks were purchased from Falcon Company, collagen-coated 96-well multi-plates were purchased from Iwaki Glass Co., Ltd., and LY-294002 was purchased from Alexis Biochemicals, respectively. As for other reagents, commercially available guaranteed reagents were used.
A DMEM/F-12 culture medium which contains 5% FCS, 0.5% N2, 10 mM HEPES, and a 1% mixed solution of penicillin (5000 U/ml) and streptomycin (5 mg/ml) was used to subculture SK-N-SH cells in a carbon dioxide incubator under a mixed gas atmosphere consisting of 10% carbon dioxide/90% air. After being cultivated to a sub-confluent stage, the cells were detached with a PBS(−) solution containing 2.5 mM EDTA and seeded onto collagen-coated 96-well multi-plates in the proportion of 10^4/100 μL well. After cultivation for 24 hours, the cultured cells were used in a cytotoxic test.
[…] of the culture medium of the SK-N-SH cells that were cultured as described above on the collagen-coated 96-well multi-plates was removed, and 40 μL each of LY-294002 having a final concentration of 30 μM and a test compound having a final concentration that was adjusted to be 1.0 μM were simultaneously added to initiate the cytotoxicity test. Note that each test compound used was diluted to a concentration of 10 mM with dimethyl sulfoxide, and the LY-294002 used was diluted to a concentration of 100 mM with dimethyl sulfoxide.
The survival activity of neural cells that were still living one day after the initiation of the cytotoxicity test was estimated by the reductive activity of Alamarblue™ reagent as an index. 20 μL of the culture medium was removed, 20 μL of Alamarblue™ reagent was added, and the amount of Alamarblue™ reagent reduced for 4 hours incubation was calorimetrically measured with a plate reader (WAKO SPECTRAMAX 250 Microplate Reader) (measurement wave length 570 nm, reference wave length 600 nm).
Cytoprotection activity was calculated by means of the following equation. Cytoprotection activity a test compound=(A−B)/(C−B)×100 (%) • A: The survival activity of a group consisting of a test compound and LY-294002 • B: The survival activity of a group consisting of LY-294002 • C: The survival activity of a control group (Results)
At least 4 wells for every 1 dose of a test compound was used to determine the cytoprotection activity of a test compound.

mixed rat glia culture = assay: Neurogenesis enhancing activity in mixed rat glia culture (β III-tubulin positive cell area); type: cell-based; details: compound 1 μM; serum-free medium, five days differentiation; β III-tubulin positive cell area by image analysis versus control without compound
Source text: Neurogenesis Enhancing Activity in Mixed Rat Glia Culture
Neonatal of SD rats were purchased from Japan Charles River Co, Ltd. A […] nylon cell strainer was purchased from Beckton-Dickinson. DMEM/F12 culture medium, antibiotic, and N2 additive were purchased from Life Technology Corp. Anti β III-tubulin antibody was purchased from Sigma Corp. DAKO EnVision+/HRP kit was purchased from Dako Japan Corp. As for other reagents, commercially available guaranteed reagents were used.
Rat mixed glia culture was prepared from the cerebrums of 2 day old neonatal SD rat. The neonates were anaesthetised with ice cooling, were decapitated, and their brains were quickly removed. The meninges were carefully removed, and the cerebral cortex was separated therefrom. The cerebral cortex was passed through 40 micron nylon mesh, and it was physically dissociated. Cell suspension was then layered in a cell dispersion liquid on serum, and the cells were fractionated by non-continuous density gradient centrifugation. The precipitate was washed twice with growth culture medium (10% FBS and antibiotic. added to DMEM/F12), and it was dispersed. Mixed glia culture was seeded and inoculated onto a collagen coated 96 well multiplate with 1×10^5 cells per well, and was cultured for five days.
After culturing for five days, mixed glia culture was used in a differentiation assay. Growth culture medium was substituted with a serum-free medium (N2 supplememt and antibiotic added to DMEM/F12), and test compound was added simultaneously. After differentiation for five days, culture was fixed with 4% paraformaldehyde, and was immunostained with the mouse anti β III-tubulin monoclonal antibody and the DAKO EnVison+/HRP kit.
β III-tubulin positive cell area were quantified by image analysis, and was compared to when compound (I) was added (1 μM) and when it was not added (control).

COc1ccc(N2CCN(c3c(C)c(C)c4c(c3C)C(Nc3ccccc3)C(C)(C)O4)CC2)cc1 (stereo not shown) [Example 58, N-phenyl-5-(4-(4-methoxyphenyl)piperazin-1-yl)-2,2,4,6,7-pentamethyl-2,3-dihydro-1-benzofuran-3-amine]
Cell protection activity (%) [1]: 39.2%

COc1ccc(N2CCN(c3c(C)c(C)c4c(c3C)C(O)(c3ccc(C)cc3)C(C)(C)O4)CC2)cc1 (stereo not shown) [Example 33, 1-(3-hydroxy-2,2,4,6,7-pentamethyl-3-(4-methylphenyl)-2,3-dihydro-1-benzofuran-5-yl)-4-(4-methoxyphenyl)piperazine]
Cell protection activity (%) [1]: 24.9%
Differentiation/nacent promotion activity (%/control) (mixed rat glia culture): 448 %/control

COc1ccc(N2CCN(c3c(C)c(C)c4c(c3C)C(c3ccc(C)cc3)C(C)(C)O4)CC2)cc1 (stereo not shown) [Example 46, 1-(2,2,4,6,7-pentamethyl-3-(4-methylphenyl)-2,3-dihydro-1-benzofuran-5-yl)-4-(4-methoxyphenyl)piperazine]
Cell protection activity (%) [1]: 39.5%
Differentiation/nacent promotion activity (%/control) (mixed rat glia culture): 842 %/control

COc1ccc(C2CCN(c3c(C)c(C)c4c(c3C)[C@@H](c3ccc(C)cc3)C(C)(C)O4)CC2)cc1OC [Example 32, (3R)-4-(3,4-dimethoxyphenyl)-1-(2,2,4,6,7-pentamethyl-3-(4-methylphenyl)-2,3-dihydro-1-benzofuran-5-yl)piperidine]
Cell protection activity (%) [1]: 35.6%
Differentiation/nacent promotion activity (%/control) (mixed rat glia culture): 371 %/control

COc1ccc(C2CCN(c3c(C)c(C)c4c(c3C)C(N3CCc5ccccc5CC3)C(C)(C)O4)CC2)cc1OC (stereo not shown) [Example 92, 3-(5-(4-[3,4-dimethoxyphenyl]piperidino)-2,2,4,6,7-pentamethyl-2,3-dihydro-1-benzofuran-3-yl)-2,3,4,5-tetrahydro-1H-3-benzoazepin]
Cell protection activity (%) [1]: 29.6%

COc1ccc(N2CCN(c3c(C)c(C)c4c(c3C)C(N3CCCCC3)C(C)(C)O4)CC2)cc1 (stereo not shown) [Example 59, 4-(4-methoxyphenyl)-1-(2,2,4,6,7-pentamethyl-3-piperidino-2,3-dihydro-1-benzofuran-5-yl)piperazine]
Cell protection activity (%) [1]: 23.9%

COc1ccc(C2CCN(c3c(C)c(C)c4c(c3C)C(c3ccc(C)cc3)C(C)(C)O4)CC2)cc1OC (stereo not shown) [Example 79, 4-(3,4-dimethoxyphenyl)-1-(3-(4-methylphenyl)-2,2,4,6,7-pentamethyl-2,3-dihydro-1-benzofuran-5-yl)piperidine]
Cell protection activity (%) [1]: 31.3%
